Measured values from patent publication US20220257595A1, “MACITENTAN FOR USE IN TREATING PORTOPULMONARY HYPERTENSION” (ACTELION PHARMACEUTICALS LTD, priority 2019, published 2022).
Values joined by “and” are separate entries in the source; they are usually repeats but may differ in a detail not shown here. Equal entries are not always repeated.

Tested on: patients with PoPH
Test: PORTICO safety: treatment-emergent AEs, SAEs, AESIs, deaths, discontinuations
Assay type: in vivo
Text: For the evaluation of treatment-emergent safety endpoints in the DB phase, the observation period for each individual subject started at the time of the first administration of macitentan or placebo and ended with the start of OL treatment or 30 days after DB treatment discontinuation (whichever occurred first). The safety variables listed below apply to the DB treatment-emergent period and the macitentan treatment-emergent period. The DB treatment-emergent period was defined as the period from the DB treatment start date up to the EOT-DB+30 days or to the EOT-DB for patients entering OL. The macitentan treatment-emergent period was defined as the period from the first intake of macitentan up to end of macitentan treatment (EOMT)+30 days. EOMT was defined as EOT-DB (for patient who received macitentan only in the DB period) or EOT-OL when applicable. For patients entering OLE, the EOMT is EOT-OL. • Treatment-emergent AEs • Treatment-emergent deaths • Treatment-emergent serious adverse events (SAEs) • AEs leading to premature discontinuation of study treatment • Occurrence of post-baseline LFT (ALT and/or AST) abnormalities, classified as: • ≥3×ULN; • ≥5×ULN; • ≥8×ULN; • ≥3×ULN and <5×ULN; • […] and <8×ULN. • Occurrence of post-baseline ALT and/or AST abnormality 3×ULN and concomitant (i.e., at the same time) total bilirubin ≥2×ULN • Occurrence of post-baseline ALT and/or AST abnormality ≥3×ULN and concomitant (i.e., at the same time) total bilirubin ≥2×ULN and increased as compared to baseline • Occurrence of hemoglobin abnormalities, classified as: • ≤80 g/L, • >80 and ≤100 g/L, • decrease from baseline ≥20 g/L and <50 g/L, • decrease from baseline ≥50 g/L, • <100 g/L and concurrent (i.e., at the same time) decrease from baseline ≥20 g/L. • Other treatment-emergent marked laboratory abnormalities • Change from baseline/macitentan baseline to EOT-DB/EOMT in vital signs • Change from baseline/macitentan baseline to EOT-DB/EOMT in laboratory variables • Change from baseline/macitentan baseline to EOT-DB/EOMT in Child-Pugh classification • Change from baseline/macitentan baseline to EOT-DB/EOMT in MELD score
(i) Adverse events: All AEs occurring after study start (i.e., signing of informed consent) and up to 30 days after study treatment discontinuation were required to be recorded. AEs still ongoing more than 30 days after study treatment discontinuation were required to be followed up until they were no longer considered clinically relevant.
(ii) Serious adverse events, including associated with study design or protocol-mandated procedures: During the screening period, all SAEs occurring after study start (i.e., signing of informed consent) were required to be recorded (whether considered associated or not associated to study design or study-mandated procedures). All SAEs, regardless of investigator-attributed causal relationship, occurring during the treatment period up to the end of the 30-day follow up period, were required to be reported. SAEs still ongoing at the EOS visit were required to be followed up until resolution or stabilization, or until the event outcome was provided, e.g., death. New SAEs occurring after the 30-day follow-up period were required to be reported within 24 hours.
In addition, the following adverse events of special interest (AESIs) were analyzed: • “Edema and fluid retention”
Any treatment-emergent AE with PT listed in the Standardised MedDRA Query (SMQ) “Haemodynamic oedema, effusions and fluid overload (SMQ)” or with PT equal to “Pulmonary congestion” defined in the latest available MedDRA version, with the exception of PTs containing “site”. • “Anemia”

[1] = macitentan DB + OL phase, Macitentan treated set, N = 84
[2] = macitentan DB+OL phase, MTS N=84

## CCCNS(=O)(=O)Nc1ncnc(OCCOc2ncc(Br)cn2)c1-c1ccc(Br)cc1 [macitentan, N-[5-(4-Bromophenyl)-6-[2-[(5-bromo-2-pyrimidinyl)oxy]ethoxy]-4-pyrimidinyl]-N′-propylsulfamide]
[1]
  AEs of special interest Hepatic disorders, Blood bilirubin increased: 1 (1.2) n (%)
  AEs of special interest Hepatic disorders, Hepatocellular carcinoma: 1 (1.2) n (%)
  AEs of special interest Hepatic disorders, Jaundice: 1 (1.2) n (%)
  AEs of special interest Hepatic disorders, Liver function test abnormal: 1 (1.2) n (%)
  AEs of special interest Hepatic disorders, Liver function test increased: 1 (1.2) n (%)
  AEs of special interest Hepatic disorders, Portal hypertensive gastropathy: 1 (1.2) n (%)
  AEs of special interest Hepatic disorders, Portopulmonary hypertension: 1 (1.2) n (%)
  AEs of special interest Hepatic disorders, Subjects with atleast one AE: 13 (15.5) n (%)
  AEs of special interest Hepatic disorders, Total bile acids increased: 2 (2.4) n (%)
  AEs of special interest Hepatic disorders, Varices oesophageal: 1 (1.2) n (%)
  Subjects with at least one AE: 74 (88.1) n (%)
  Subjects with at least one SAE: 25 (29.8) n(%)
  Treatment-emergent AE, Abdominal pain: 4 (4.8) n (%)
  Treatment-emergent AE, Acute kidney injury: 3 (3.6) n (%)
  Treatment-emergent AE, Anaemia: 12 (14.3) n (%)
  Treatment-emergent AE, Arthralgia: 3 (3.6) n (%)
  Treatment-emergent AE, Ascites: 4 (4.8) n (%)
  Treatment-emergent AE, Asthenia: 4 (4.8) n (%)
  Treatment-emergent AE, Bronchitis: 8 (9.5) n (%)
  Treatment-emergent AE, Dizziness: 7 (8.3) n (%)
  Treatment-emergent AE, Dyspnoea: 4 (4.8) n (%)
  Treatment-emergent AE, Dyspnoea exertional: 3 (3.6) n (%)
  Treatment-emergent AE, Fall: 3 (3.6) n (%)
  Treatment-emergent AE, Haemoglobin decreased: 6 (7.1) n (%)
  Treatment-emergent AE, Headache: 16 (19.0) n (%)
  Treatment-emergent AE, Hepatic encephalopathy: 4 (4.8) n (%)
  Treatment-emergent AE, Hypokalaemia: 3 (3.6) n (%)
  Treatment-emergent AE, Hypotension: 4 (4.8) n (%)
  Treatment-emergent AE, Influenza like illness: 3 (3.6) n (%)
  Treatment-emergent AE, Iron deficiency anaemia: 3 (3.6) n (%)
  Treatment-emergent AE, Muscle spasms: 3 (3.6) n (%)
  Treatment-emergent AE, Nausea: 4 (4.8) n (%)
  Treatment-emergent AE, Oedema peripheral: 23 (27.4) n (%)
  Treatment-emergent AE, Pain in extremity: 7 (8.3) n (%)
  Treatment-emergent AE, Pruritus: 3 (3.6) n (%)
  Treatment-emergent AE, Pulmonary arterial hypertension: 3 (3.6) n (%)
  Treatment-emergent AE, Rash: 3 (3.6) n (%)
  Treatment-emergent AE, Rhinitis: 5 (6.0) n (%)
  Treatment-emergent AE, Right ventricular failure: 6 (7.1) n (%)
  Treatment-emergent AE, Urinary tract infection: 3 (3.6) n (%)
  Treatment-emergent AE, Viral upper respiratory tract infection: 4 (4.8) n (%)
  Treatment-emergent AE, Vomiting: 3 (3.6) n (%)
  Treatment-emergent SAE, Abdominal pain: 1 (1.2) n(%)
  Treatment-emergent SAE, Acute kidney injury: 2 (2.4) n(%)
  Treatment-emergent SAE, Alveolitis: 1 (1.2) n(%)
  Treatment-emergent SAE, Anaemia: 2 (2.4) n(%)
  Treatment-emergent SAE, Ascites: 2 (2.4) n(%)
  Treatment-emergent SAE, Asthma: 1 (1.2) n(%)
  Treatment-emergent SAE, Atrial fibrillation: 1 (1.2) n(%)
  Treatment-emergent SAE, Bronchitis: 1 (1.2) n(%)
  Treatment-emergent SAE, Chronic kidney disease: 1 (1.2) n(%)
  Treatment-emergent SAE, Fall: 1 (1.2) n(%)
  Treatment-emergent SAE, Fluid overload: 1 (1.2) n(%)
  Treatment-emergent SAE, Gastrointestinal haemorrhage: 1 (1.2) n(%)
  Treatment-emergent SAE, Haemoptysis: 1 (1.2) n(%)
  Treatment-emergent SAE, Hepatic encephalopathy: 3 (3.6) n(%)
  Treatment-emergent SAE, Hepatocellular carcinoma: 1 (1.2) n(%)
  Treatment-emergent SAE, Humerus fracture: 1 (1.2) n(%)
  Treatment-emergent SAE, Hypersensitivity: 1 (1.2) n(%)
  Treatment-emergent SAE, Ileus: 1 (1.2) n(%)
  Treatment-emergent SAE, Intervertebral disc protrusion: 1 (1.2) n(%)
  Treatment-emergent SAE, Iron deficiency anaemia: 1 (1.2) n(%)
  Treatment-emergent SAE, Left ventricular failure: 1 (1.2) n(%)
  Treatment-emergent SAE, Liver function test increased: 1 (1.2) n(%)
  Treatment-emergent SAE, Localised oedema: 1 (1.2) n(%)
  Treatment-emergent SAE, Lung infection: 1 (1.2) n(%)
  Treatment-emergent SAE, Malignant ascites: 1 (1.2) n(%)
  Treatment-emergent SAE, Melaena: 2 (2.4) n(%)
  Treatment-emergent SAE, Oedema peripheral: 2 (2.4) n(%)
  Treatment-emergent SAE, Osteitis: 1 (1.2) n(%)
  Treatment-emergent SAE, Pneumonia: 1 (1.2) n(%)
  Treatment-emergent SAE, Presyncope: 1 (1.2) n(%)
  Treatment-emergent SAE, Priapism: 1 (1.2) n(%)
  Treatment-emergent SAE, Pulmonary arterial hypertension: 2 (2.4) n(%)
  Treatment-emergent SAE, Pulmonary toxicity: 1 (1.2) n(%)
  Treatment-emergent SAE, Right ventricular failure: 4 (4.8) n(%)
  Treatment-emergent SAE, Staphylococcal infection: 1 (1.2) n(%)
  Treatment-emergent SAE, Subdural haematoma: 1 (1.2) n(%)
  Treatment-emergent SAE, Syncope: 1 (1.2) n(%)
  Treatment-emergent SAE, Thrombocytopenia: 1 (1.2) n(%)
  Treatment-emergent SAE, Tinnitus: 1 (1.2) n(%)
  Treatment-emergent SAE, Troponin I increased: 1 (1.2) n(%)
  Treatment-emergent SAE, Urosepsis: 1 (1.2) n(%)
Macitentan DB+OL phase
  Anemia AEs reported as SAEs: 2 and 3
  Patients who discontinued treatment due to AEs: 10 patients
  Patients who had an SAE: 29.8%
  Patients with edema and fluid retention AEs reported as serious: 2 patients
  Patients with hepatic disorder AEs reported as SAEs: 5 patients
  Peripheral edema leading to discontinuation of treatment: 2 patients
Macitentan DB+OL phase (13 patients)
  Patients with hepatic disorder AEs: 15.5%
Macitentan DB+OL phase (22 patients)
  Patients with anemia AEs: 26.2%
Macitentan DB+OL phase (26 patients)
  Patients with edema and fluid retention AEs: 31.0%
Macitentan DB+OL phase, 3 patients
  Decreased hemoglobin considered related to study treatment: 3.6%
Macitentan DB+OL phase, 3 patients each
  Most frequent severe AEs (peripheral edema, right ventricular failure, acute kidney injury), each: 3.6%
Macitentan DB+OL phase, 4 patients
  Anemia considered related to study treatment: 4.8%
Macitentan DB+OL phase, 10 patients
  Peripheral edema considered related to study treatment: 11.9%
Macitentan DB+OL phase, 11 patients
  Headache considered related to study treatment: 13.1%
Macitentan DB+OL phase, 19 patients
  Patients with AEs of severe intensity: 22.6%
[2]
  Subjects with AE leading to study drug discontinuation: 10 (11.9) n (%)
  Subjects with Drug-Related AE: 33 (39.3) n (%)
  Subjects with Drug-Related serious AE: 8 (9.5) n (%)
  Subjects with Fatal serious AE: 4 (4.8) n (%)
  Subjects with Serious AE: 25 (29.8) n (%)
  Subjects with Severe AE: 19 (22.6) n (%)
Macitentan DB+OL phase, Macitentan treated set N=84
  Subjects with at least one AE: 74 (88.1) n (%)
Patients with PoPH and mild or moderate liver impairment
  Overall safety and tolerability: good safety profile and is well tolerated
